Publication PMC6058525, “A novel phenolic propanediamine moiety-based lung-targeting therapy for asthma” (Drug Delivery, 2018)
Converted amounts (≈) assume the structure as drawn. Blank lines part the entries; values can stand above or below the compound they belong to.

What was measured:
A549 cells [1] = test: Cellular uptake of TPD-Rhein in the presence of transporter inhibitors; assay type: cell-based, human; settings: A549 cells preincubated 1 h with inhibitor 189 μM, then TPD-Rhein 18.9 μM 1 h; vs control without inhibitor
Protocol: The A549 cells were seeded in 6-well culture plates (5 × 10^5 cells/well). On the second day, cells were incubated with Rhein or TPD-Rhein solution at increasing concentrations (4.7, 9.3, 18.9 and 37.4 μM, respectively, equivalent to Rhein) at 37 °C for 1 h. Cells were rinsed three times with ice-cold PBS and collected for the determination of intracellular concentration. To explore the cell delivery mechanism of TPD, the cells were precubated with indicated inhibitors for 1 h and then incubated with TPD-Rhein (18.9 μM) for another 1 h. For energy depletion, cells were exposed to Rhein or TPD-Rhein (18.9 μM) for 0.5 h at 37 °C, 4 °C, or in the presence of NaN3 (1 mg/mL) for 1 h. Lysine and L-arginine were substrates of basic amino acid transporters (Zhou et al., [2016]). Pyrilamine was used to indicate pyrilamine-sensitive transporter (Okura et al., [2008]). Spermine and Spermidine were inhibitors of the alkaline polyamine transporter (Grancara et al., [2014]). […] Choline was a substrate of choline transport system (Taguchi et al., [2014]). TPD was performed as a competitive cationic inhibitor. The inhibitor concentrations were 10-fold (189 μM) of the concentration of TPD-Rhein. In the end, cells were rinsed three times with ice-cold PBS and the intracellular concentrations of Rhein or TPD-Rhein were measured by LC-MS/MS. Cellular uptake was expressed as the amount (nmol/L) of Rhein or TPD-Rhein per 1 mg of total cellular protein. The total protein concentration of cell lysates was measured using the BCA protein assay kit (Pierce, Appleton, WI).

[2] = tested on: OVA-induced asthma model in rats; test: Therapeutic effect on ovalbumin-induced asthma model; assay type: in vivo, rat; settings: OVA-challenged asthmatic rats, i.v. Rhein 4.5 mg/kg/day or TPD-Rhein 7.7 mg/kg/day
Protocol: Wistar rats were used to evaluate the efficacy of Rhein and TPD-Rhein on asthma. Forty healthy male rats (200 ± 20 g) were randomly divided into four groups (n = 10). Asthma model in rats was established according to a previously reported method with slight modifications (Lu et al., [2015]). Briefly, on day 0, rats were systemically sensitized with an intraperitoneal injection with 1 mL of 10% ovalbumin (OVA). Two weeks after the sensitization, the rats were exposed to aerosolized OVA for 30 min of cycling three times per week for 14 weeks. The concentration of OVA was increased from 2% for 8 weeks to 4% for remaining 6 weeks to maintain the asthma condition. From weeks 3–16, the OVA-sensitized rats in the treatment groups were given normal saline, Rhein, or TPD-Rhein intravenously before OVA inhalation, at doses of 4.5 mg/kg/day for Rhein and 7.7 mg/kg/day for TPD-Rhein (dose equivalent to free drug treatment), respectively. The rats in the normal group received with the same volume of normal saline instead. One day after the last ultrasonic atomization, all rats were anesthetized by 3% sodium pentobarbital solution at a dose of 45 mg/kg. Then, 0.5 mL of intracardiac blood of each rat was collected. The histamine level and Interleukin-5 (IL-5) level in the supernatant serum were determined using Rat HIS ELISA kit (R&D Company, Minneapolis, MN) and Rat IL-5 ELISA Kit (R&D Company, Minneapolis, MN) according to the manufacturer’s instructions, respectively. Lungs were removed from sacrificed rats and lavaged to determine the IL-5 level using the corresponding kit. In the end, lungs were fixed in 4% buffered formalin, paraffin embedded and sectioned for hematoxylin and eosin staining (H&E) for conventional histological analysis.

Hela cells = test: Cell uptake in Hela cells; assay type: cell-based, human
Source text: (§1) Male Wistar rats (body weight: 200 ± 20 g) were supplied by the Experimental Animal Center of Zhengzhou University (Zhengzhou, China). Rats were maintained in a germ-free environment and allowed free access to food and water for at least one week before experiments. All animal experiments were approved by the Institutional Animal Care and Ethics Committee of Zhengzhou University, according to the requirements of the National Act on the use of experimental animals (PR China). A549 cells (human pulmonary alveolar epithelial cells), L929 cells (mouse fibroblast cells), and Hela cells (human carcinoma cervical cells) were obtained from ATCC (Manassas, VA). The cells were cultured in DMEM with high glucose (GIBCO, Big Cabin, OK) supplemented with 20% fetal bovine serum and 1% penicillin/streptomycin. Routinely, cells were maintained at 37 °C in a humidified atmosphere containing 5% CO2, and the cell medium was changed every other day. The A549 cells were seeded in 6-well culture plates (5 × 10^5 cells/well). […] In the end, cells were rinsed three times with ice-cold PBS and the intracellular concentrations of Rhein or TPD-Rhein were measured by LC-MS/MS. Cellular uptake was expressed as the amount (nmol/L) of Rhein or TPD-Rhein per 1 mg of total cellular protein. The total protein concentration of cell lysates was measured using the BCA protein assay kit (Pierce, Appleton, WI).

[3] = Aqueous solubility in PBS; assay type: physicochemical; settings: 25 °C, thermodynamic from solid
Protocol: The solubilities of Rhein and TPD-Rhein were determined in PBS with varying pH values (pH = 2 and 7.4) by equilibrating an excess of solid compound in 5 mL of buffer at 25 °C for 12 h. The samples were filtered through a 0.22 µm Millipore filter, diluted in methanol, and analyzed by LC-MS/MS. The chemical and enzymatic stabilities of TPD-Rhein were assessed in PBS with varying pH values (pH = 2, 4.5, 6.8, and 7.4), freshly prepared rat plasma and lung homogenates (diluted with 0.9% physiological saline) from rats at 37 °C, respectively. At predetermined time intervals, samples were immediately diluted by an equal amount of methanol to precipitate protein, vortexed for 5 min and centrifuged at 13,000 rpm for 10 min. The supernatant was then subjected to LC-MS/MS. Stability studies were performed in triplicate.

L929 cells = test: Cell uptake in L929 cells; assay type: cell-based, mouse
Source text: as §1

A549 cells [4] = test: Cell uptake study in A549 cells (LC-MS/MS); assay type: cell-based, human; settings: 18.9 μM, NaN3 1 mg/mL
Protocol: The A549 cells were seeded in 6-well culture plates (5 × 10^5 cells/well). On the second day, cells were incubated with Rhein or TPD-Rhein solution at increasing concentrations (4.7, 9.3, 18.9 and 37.4 μM, respectively, equivalent to Rhein) at 37 °C for 1 h. Cells were rinsed three times with ice-cold PBS and collected for the determination of intracellular concentration. To explore the cell delivery mechanism of TPD, the cells were precubated with indicated inhibitors for 1 h and then incubated with TPD-Rhein (18.9 μM) for another 1 h. For energy depletion, cells were exposed to Rhein or TPD-Rhein (18.9 μM) for 0.5 h at 37 °C, 4 °C, or in the presence of NaN3 (1 mg/mL) for 1 h. Lysine and L-arginine were substrates of basic amino acid transporters (Zhou et al., [2016]). Pyrilamine was used to indicate pyrilamine-sensitive transporter (Okura et al., [2008]). Spermine and Spermidine were inhibitors of the alkaline polyamine transporter (Grancara et al., [2014]). […] In the end, cells were rinsed three times with ice-cold PBS and the intracellular concentrations of Rhein or TPD-Rhein were measured by LC-MS/MS. Cellular uptake was expressed as the amount (nmol/L) of Rhein or TPD-Rhein per 1 mg of total cellular protein. The total protein concentration of cell lysates was measured using the BCA protein assay kit (Pierce, Appleton, WI).

[5] = Plasma pharmacokinetics after i.v. injection; assay type: in vivo; settings: rat, iv, rats, 10 mg/kg Rhein equivalent
Protocol: Rhein or TPD-Rhein was injected through the tail vein of rats. For each preparation and sampling time point, five rats were treated with a single dose of Rhein at the dose of 10 mg/kg or TPD-Rhein at 17.2 mg/kg (dose equivalent to 10 mg/kg Rhein), respectively. The rats were scarified at predetermined time intervals (0.083, 0.25, 0.5, 1, 2, 4, 8, 16, and 24 h) after administration. The whole blood was quickly collected into heparinized tubes and centrifuged at 5000 rpm for 5 min to obtain plasma. Then, the tissues (heart, liver, spleen, lung, kidney, and brain) were rinsed with saline, weighed and homogenized with cold physiological saline (twice the weight of tissues). For Rhein treated rats, the content of Rhein in the homogenates was measured by LC-MS/MS. For TPD-Rhein treated rats, the samples were injected to LC-MS/MS to determine the concentration of free Rhein released and TPD-Rhein, respectively. The content of TPD-Rhein in tested tissues at different time point was the sum of TPD-Rhein and free Rhein released. The biodistribution of the two drugs in each organ was normalized by the weight of the selected tissue.
The pharmacokinetic data were calculated using the DAS software version 2.0 (Mathematical Pharmacology Professional Committee of China, Shanghai, China). The relative uptake efficiency (Re) and concentration efficiency (Ce) were used to evaluate the lung-targeting properties of TPD-Rhein. The values of Re and Ce were calculated as follows: Relung=(AUC0-t, lung)TPD-Rhein/(AUC0-t, lung)Rhein Celung=(Cmax, lung)TPD-Rhein/(Cmax, lung)Rhein

[6] = In vitro cytotoxicity, MTT assay; assay type: cell-based; settings: human, A549 cells, under tested concentrations, read-out: A549 cells remaining viable
Protocol: To evaluate the in vitro cytotoxicity of Rhein and TPD-Rhein, MTT (3-(4, 5-dimethylthiazol-2-yl)-2, 5-diphenyltetrazolium bromide) assays were performed using A549 cell lines. Briefly, A549 cells were seeded in 96-well culture plates at a density of 1 × 10^4 cells/well and incubated at 37 °C for two days. On the day of administration, the cells were treated with different concentrations of Rhein solution, TPD-Rhein solution or TPD solution (dispersed in serum-free culture medium) for 4 h. An aliquot of 20 μL MTT solution (5 mg/mL) were added into each well and incubated at 37 °C for another 4 h. After that, all medium was removed and cells were rinsed with phosphate-buffered saline (PBS), and the formed dark blue formazan crystals in each well were dissolved in 150 μL DMSO. The absorbance of each individual well was read on a microplate reader (Thermo Scientific, Waltham, MA, Varioskan Flash) at 570 nm wavelength. Cells not exposed to samples were used as control (=100% viability).

SMILES: NCCCC[C@H](N)C(=O)O [L-lysine]
effect of inhibitor on cellular uptake of TPD-Rhein (A549 cells [1]): no obvious impact

SMILES: CN(C)CCCN1c2ccccc2CCc2ccccc21 [imipramine]
effect of inhibitor on cellular uptake of TPD-Rhein (A549 cells [1]): significantly reduced

SMILES: NCCCCNCCCN [spermidine]
effect of inhibitor on cellular uptake of TPD-Rhein (A549 cells [1]): no obvious impact

SMILES: N=C(N)NCCC[C@H](N)C(=O)O [L-arginine]
effect of inhibitor on cellular uptake of TPD-Rhein (A549 cells [1]): no obvious impact

uptake compared with A549 cells (Hela cells): slight decrease
solubility at 12 h ([3]; pH 2, aqueous buffer, PBS pH 2.0, 25 °C): 3.56 ± 0.2 µg/mL (≈ 12.5 µM)
solubility at 12 h ([3]; pH 7.4, aqueous buffer, PBS pH 7.4, 25 °C): 513 ± 32 µg/mL (≈ 1800 µM)
uptake compared with A549 cells (L929 cells): slight decrease
intracellular amount at 4 °C or in the presence of NaN3 versus 37 °C (A549 cells [4]): no substantial difference
AUC(0-t) [5]: 206 ± 10.6 µM·h
Cmax [5]: 308 ± 3.89 µM
clearance ([5]; read-out: CLZ (converted)): 2.83 mL/min/kg
Vd ([5]; read-out: VZ): 0.47 ± 0.02 L/kg
SMILES: O=C(O)c1cc(O)c2c(c1)C(=O)c1cccc(O)c1C2=O [Rhein, 4,5-dihydroxyanthraquinone-2-carboxylic acid]
bronchoalveolar lavage fluid IL-5 level ([2]; vs asthmatic model group): no significant differences
plasma (serum) IL-5 level ([2]; vs asthmatic model group): no significant differences
lung histology (H&E) ([2]; vs asthmatic model rats): no significant improved anti-asthma efficacy

SMILES: C[N+](C)(C)C[C@H](O)CC(=O)[O-] [L-carnitine]
effect of inhibitor on cellular uptake of TPD-Rhein (A549 cells [1]): no obvious impact

SMILES: NCCCNCCCCNCCCN [spermine]
effect of inhibitor on cellular uptake of TPD-Rhein (A549 cells [1]): no obvious impact

SMILES: CC[N+](CC)(CC)CC.[Cl-] [Tetraethylammonium (TEA) chloride]
effect of inhibitor on cellular uptake of TPD-Rhein (A549 cells [1]): significantly reduced

SMILES: CN(C)CCCN(C)Cc1ccc(O)cc1 [TPD, N,N,N’-trimethyl-N’-(4-hydroxyl-benzyl)-1,3-propanediamine]
viability at 4 h [6]: > 90%
effect of inhibitor on cellular uptake of TPD-Rhein (A549 cells [1]): abolish

SMILES: COc1ccc(CN(CCN(C)C)c2ccccn2)cc1 [pyrilamine]
effect of inhibitor on cellular uptake of TPD-Rhein (A549 cells [1]): no obvious impact

SMILES: C[N+](C)(C)CCO [choline]
effect of inhibitor on cellular uptake of TPD-Rhein (A549 cells [1]): no obvious impact
